Series [1] in a line: Inhibition of HCV NS5B J4 delta 21 polymerase. Also on record: species or system Hepacivirus hominis.
Series [2] is described as follows: Inhibition of HCV NS5B RB01 polymerase. Also on record: species or system Hepacivirus hominis.
The next series concerns Hepatitis C virus. As to the kind of experiment: Inhibition of HCV replicon by cell based assay. It counts as functional, organism-based, Hepacivirus hominis.
In the next series the test system is Hepacivirus hominis. Put plainly: Inhibition of HCV NS5B J4 delta 21 polymerase at 10 uM.
Series [3] in a line: Permeability across artificial membrane by PAMPA assay. The note with it: read-out: permeability. Format: ADME. On the technique in general: The PAMPA barrier holds no transporters, so it reflects passive diffusion.

Broadly, the IC50 is the concentration at which inhibition is half-maximal. In turn, `CC(C)C[C@@]1(C(N)=O)C[C@H](C(=O)O)[C@H](c2cccs2)N1C(=O)c1ccc(C(F)(F)F)cc1` returned an IC50 in series [1] of 8100 nM.

Consider `CC(C)C[C@@]1(C(=O)O)C[C@H](C(N)=O)[C@H](c2nccs2)N1C(=O)c1ccc(C(C)(C)C)cc1` (stereo in doubt; 32), for which the values for the IC50 in series [2] and in series [1] were 4.4 µM and 80 nM, respectively.

On to `CC(C)C[C@@]1(C(=O)O)C[C@H](C(=O)NS(C)(=O)=O)[C@H](c2nccs2)N1C(=O)c1ccc(C(F)(F)F)cc1`, for which the IC50 in series [1] is 410 nM.

For `CC(C)C[C@@]1(C(=O)O)C[C@H](C(=O)Nc2ccccc2)[C@H](c2nccs2)N1C(=O)c1ccc(C(C)(C)C)cc1` (stereo in doubt; (+)41), the IC50 in the series on Hepatitis C virus was 30 µM; in series [2] it was 0.5 µM.

In series [1], `CC(C)C[C@@]1(C(=O)O)C[C@H](C(N)=O)[C@H](c2cccs2)N1C(=O)c1ccc(C(C)(C)C)cc1` gave a half-inhibitory concentration (IC50) of 330 nM.

`CC(C)C[C@@]1(C(=O)O)C[C@H](C(N)=O)[C@H](c2nccs2)N1C(=O)c1ccc(C(C)(C)C)cc1` (stereo in doubt; (-)32) had an IC50 in series [1] of 2500 nM.

Compound `CC(C)C[C@@]1(C(=O)O)C[C@H](C(=O)O)[C@H](c2nccs2)N1C(=O)c1ccc(C(F)(F)F)cc1` yielded a concentration for half-maximal inhibition (IC50) in series [1] of 450 nM.

Regarding `CC(C)C[C@@]1(C(=O)O)C[C@H](C(=O)Nc2ccccc2)[C@H](c2nccs2)N1C(=O)c1ccc(C(C)(C)C)cc1` (stereo in doubt; 41), the IC50 in the series with Hepatitis C virus (Hepatitis C virus) is 45 µM; in series [2], 3.1 µM; in series [1] it was 160 nM.

For `CC(C)C[C@@]1(C(=O)O)C[C@H](C(=O)NS(=O)(=O)c2ccccc2)[C@H](c2nccs2)N1C(=O)c1ccc(C(C)(C)C)cc1`, the IC50 in series [2] is 3.15 µM; in series [1], 500 nM.

On to `CC(C)C[C@@]1(C(=O)O)C[C@H](C(=O)O)[C@H](c2cccs2)N1C(=O)c1ccc(C(C)(C)C)cc1`, for which the 50% inhibitory concentration (IC50) in series [1] came to 750 nM.

`CC(C)C[C@@]1(C(=O)O)C[C@H](C(N)=O)[C@H](c2nccs2)N1C(=O)c1ccc(C(F)(F)F)cc1` registered a half-maximal inhibitory concentration (IC50) in series [1] of 2050 nM.

`CC(C)C[C@@]1(C(=O)O)C[C@H](C(=O)NS(=O)(=O)Cc2ccccc2)[C@H](c2nccs2)N1C(=O)c1ccc(C(C)(C)C)cc1`: the 50% inhibitory concentration (IC50) in series [2] came to 4.23 µM; in series [1] it was 550 nM.

In the case of `CC(C)C[C@@]1(C(=O)NC(C)C)C[C@H](C(=O)O)[C@H](c2cccs2)N1C(=O)c1ccc(C(F)(F)F)cc1`, the IC50 in series [1] was > 20000 nM.

For the compound `CC(C)C[C@@]1(C(=O)OCc2ccccc2)C[C@H](C(=O)O)[C@H](c2cccs2)N1C(=O)c1ccc(C(F)(F)F)cc1`, in series [1], the IC50 is > 20000 nM.

In turn, `CC(C)C[C@@]1(C(=O)O)C[C@H](C(N)=O)[C@H](c2cccs2)N1C(=O)c1ccc(C(F)(F)F)cc1` (stereo in doubt; (+)29) came in with a half-maximal inhibitory concentration (IC50) in series [1] of 2230 nM.

Take `CC(C)C[C@@]1(C(=O)O)C[C@H](C(=O)NCc2ccccc2)[C@H](c2nccs2)N1C(=O)c1ccc(C(C)(C)C)cc1`: the IC50 in series [2] was found to be 68 µM; in series [1], 8290 nM.

Consider `COC(=O)[C@]1(CC(C)C)C[C@H](C(=O)O)[C@H](c2cccs2)N1C(=O)c1ccc(C(F)(F)F)cc1`, for which the IC50 in series [1] was > 20000 nM.

Usually inhibition stands for the drop in the measured response relative to a control, in per cent. Lower therefore signals little suppression. Take `CC(C)C[C@@]1(C(=O)O)C[C@H](CO)[C@H](c2cccs2)N1C(=O)c1ccc(C(F)(F)F)cc1`: the inhibition in the series with Hepacivirus hominis turned out to be 51%.

Turning to `CC(C)C[C@@]1(C(=O)O)C[C@H](C(N)=O)[C@H](c2nccs2)N1C(=O)c1ccc(C(C)(C)C)cc1` (stereo in doubt; (+)32), the IC50 in series [2] was found to be 3.8 µM; in series [1], 70 nM.

As to `CC(C)C[C@@]1(C(=O)O)C[C@H](C(=O)O)[C@H](c2nccs2)N1C(=O)c1ccc(C(C)(C)C)cc1` (stereo in doubt; (+)28), the figures for the IC50 in series [2] and in series [1] were 2.1 µM and 30 nM, respectively.

Consider `CC(C)C[C@@]1(CO)C[C@H](C(=O)O)[C@H](c2cccs2)N1C(=O)c1ccc(C(F)(F)F)cc1`, for which the inhibition in the series with Hepacivirus hominis turned out to be 0%.

On to `CCNC(=O)[C@]1(CC(C)C)C[C@H](C(=O)O)[C@H](c2cccs2)N1C(=O)c1ccc(C(F)(F)F)cc1`, for which the IC50 in series [1] was > 20000 nM.

`CC(C)C[C@@]1(C(=O)O)C[C@H](C(=O)NS(C)(=O)=O)[C@H](c2nccs2)N1C(=O)c1ccc(C(C)(C)C)cc1`: 40 nM corresponded to half-maximal inhibition in series [1] (IC50). In series [3], the Papp is < 0.03 ×10⁻⁶ cm/s.

Turning to `CC(C)C[C@@]1(C(=O)NCc2ccccc2)C[C@H](C(=O)O)[C@H](c2cccs2)N1C(=O)c1ccc(C(F)(F)F)cc1`, the half-inhibitory concentration (IC50) in series [1] was > 20000 nM.

As for `CC(C)C[C@@]1(C(=O)O)C[C@H](C(=O)O)[C@H](c2cccs2)N1C(=O)c1ccc(C(F)(F)F)cc1` (stereo in doubt; 1), inhibition in series [2] was half-maximal at 20 µM (IC50).

On to `CNC(=O)[C@]1(CC(C)C)C[C@H](C(=O)O)[C@H](c2cccs2)N1C(=O)c1ccc(C(F)(F)F)cc1`, for which, in series [1], the IC50 was > 20000 nM.

Consider `COC(=O)[C@H]1C[C@@](CC(C)C)(C(=O)O)N(C(=O)c2ccc(C(F)(F)F)cc2)[C@H]1c1cccs1`, for which, in series [1], the IC50 was > 20000 nM.

Turning to `CC(C)C[C@@]1(C(=O)O)C[C@H](C(N)=O)[C@H](c2cccs2)N1C(=O)c1ccc(C(F)(F)F)cc1` (stereo in doubt; (-)29), in series [1], the IC50 is > 30000 nM.

`CC(C)C[C@@]1(C(=O)O)C[C@H](C(=O)O)[C@H](c2nccs2)N1C(=O)c1ccc(C(C)(C)C)cc1` (stereo in doubt; (-)28): 2360 nM corresponded to half-maximal inhibition in series [1] (IC50).

`CC(C)C[C@@]1(C(=O)O)C[C@H](C(=O)O)[C@H](c2cccs2)N1C(=O)c1ccc(C(F)(F)F)cc1` (stereo in doubt; (-)1): the midpoint of inhibition in series [1], the IC50, lay at 18000 nM.

`CC(C)C[C@@]1(C(=O)O)C[C@H](C(=O)O)[C@H](c2nccs2)N1C(=O)c1ccc(C(C)(C)C)cc1` (stereo in doubt; 28): the half-maximal inhibitory concentration (IC50) in series [2] was 3.8 µM; in series [1], 70 nM.

In series [1], `CC(C)C[C@@]1(C(=O)O)C[C@H](C(=O)NS(C)(=O)=O)[C@H](c2cccs2)N1C(=O)c1ccc(C(F)(F)F)cc1` returned an IC50 of 230 nM.

Broadly, the CC50 is the concentration giving 50% cytotoxicity. Higher therefore signals lower toxicity to the cells. Regarding `CC(C)C[C@@]1(C(=O)O)C[C@H](C(=O)Nc2ccccc2)[C@H](c2nccs2)N1C(=O)c1ccc(C(C)(C)C)cc1` (stereo in doubt; (-)41), the CC50 with Hepatitis C virus (Hepatitis C virus) was > 200 µM. Also, in series [2], the IC50 is > 100 µM.

Turning to `CNC(=O)[C@H]1C[C@@](CC(C)C)(C(=O)O)N(C(=O)c2ccc(C(C)(C)C)cc2)[C@H]1c1nccs1`, the IC50 in series [2] was 22 µM.

On to `CC(C)C[C@@]1(C(=O)O)C[C@H](C(N)=O)[C@H](c2cccs2)N1C(=O)c1ccc(C(F)(F)F)cc1` (stereo in doubt; 19), for which, in series [1], the half-maximal inhibitory concentration (IC50) was 4400 nM.

The compound `CC(C)C[C@@]1(C(=O)O)C[C@H](C(=O)NS(=O)(=O)C(F)(F)F)[C@H](c2cccs2)N1C(=O)c1ccc(C(F)(F)F)cc1` yielded a concentration for half-maximal inhibition (IC50) in series [1] of 200 nM.

As to `CC(C)C[C@@]1(C(=O)Nc2ccccc2)C[C@H](C(=O)O)[C@H](c2cccs2)N1C(=O)c1ccc(C(F)(F)F)cc1`, the half-inhibitory concentration (IC50) in series [1] was > 20000 nM.

`CC(C)C[C@@]1(C(=O)O)C[C@H](C(=O)O)[C@H](c2cccs2)N1C(=O)c1ccc(C(F)(F)F)cc1` (stereo in doubt; (+)-1): the IC50 in series [2] came out at 11.9 µM; in series [1], 300 nM.

As for `COC(=O)[C@H]1C[C@@](CC(C)C)(C(=O)OC)N(C(=O)c2ccc(C(F)(F)F)cc2)[C@H]1c1cccs1`, in series [1], the IC50 was > 20000 nM.

Values taken from ChEMBL document CHEMBL1148853, “Studies on acyl pyrrolidine inhibitors of HCV RNA-dependent RNA polymerase to identify a molecule with replicon antiviral activity” (Bioorg Med Chem Lett, 2007).
